Patent US9316633B2, “Methods for identifying inhibitors of solute transporters” (The Regents of the University of California, priority 2006, dated 2016)
Blank lines part the entries; values can stand above or below the molecule they belong to.

Key:
UT-B [1] = target: T1, UT-B (Homo sapiens, UniProt Q13336); assay: Stopped-flow light scattering, urea permeability of human RBCs; assay type: cell-based; conditions: for inhibition of urea transport, inhibitor added only to urea-containing solution (sidedness): 0.1 μM ureainh-101, 0.2 μM ureainh-302, external exposure at time of mixing; for reversibility of inhibition after washing RBCs: 10 min pre-incubation, then wash
T1 construct: the indicator cells are red blood cells that endogenously express the UT-B urea transporter; endogenous in cells; host or cells: human red blood cells (whole venous blood, single donor)
T1 sequence (Q13336 1-389): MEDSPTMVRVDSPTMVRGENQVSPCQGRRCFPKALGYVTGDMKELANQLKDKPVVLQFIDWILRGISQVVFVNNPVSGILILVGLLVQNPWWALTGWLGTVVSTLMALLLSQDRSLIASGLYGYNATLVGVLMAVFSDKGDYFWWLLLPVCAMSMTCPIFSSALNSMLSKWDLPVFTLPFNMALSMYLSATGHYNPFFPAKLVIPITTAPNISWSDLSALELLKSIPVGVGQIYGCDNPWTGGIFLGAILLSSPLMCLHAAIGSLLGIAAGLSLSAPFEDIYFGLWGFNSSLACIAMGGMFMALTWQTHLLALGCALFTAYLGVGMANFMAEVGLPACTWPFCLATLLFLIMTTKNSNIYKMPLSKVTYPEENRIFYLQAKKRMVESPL
Procedure: RBC urea and water permeabilities were assayed by stopped-flow light scattering using a Hi-Tech Sf-51 instrument (Wiltshire, UK). […] After an initial osmotic shrinking phase, the kinetics of increasing cell volume caused by urea influx were measured as the time-course of 90° scattered light intensity at 530 nm, with increasing cell volume resulting in reduced scattered light intensity. As a positive control, 0.7 mM phloretin was added to the RBC suspension prior to stopped-flow experiments. Measurements of water permeability were carried out similarly, with sucrose (cell-impermeant) used instead of urea to establish a 250-mM osmotic gradient. As a positive control, HgCl2 (0.3 mM) was added to the RBC suspension prior to stopped-flow measurements. Osmotic water permeability coefficients (Pf) were computed from light scattering data as described (van Hoek et al., J. Biol. Chem. 267:18267-69 (1992)).
After repeating the 96-well plate RBC lysis assay to confirm compound activity (see Example 2), bona fide urea transport inhibition was determined by stopped-flow light scattering from the kinetics of urea influx (RBC swelling) in response to an inwardly directed urea gradient. Rapid mixing of an RBC suspension with a hyperosmolar solution containing excess 250 mM urea produced rapid cell shrinking due to osmotic water efflux, followed by cell swelling as urea (and water) influx occurred.
To determine EC50 values for urea transport inhibition directly, RBC urea transport was measured by stopped-flow light scattering using a non-saturating concentration of extracellular urea (to avoid possible competition effects). EC50 for inhibition of RBC urea transport was determined independently by comparing stopped-flow light scattering curves to a model of cell shrinking-swelling.
For stopped-flow experiments, a 100-mM gradient of urea (for human RBCs) or N-methylurea (for mouse RBCs) was used to minimize competition effects (apparent urea and N-methylurea affinities at 23° C. are approximately 200 and approximately 100 mM, respectively) (Mayrand et al., J. Gen. Physiol. 81:221-37 (1983)). N-methylurea, with greater than 2-fold slower RBC permeability than urea, was used in mouse studies to better resolve overlapping water and urea transport kinetics. Dose-response data were also collected for human RBCs using a high concentration of 1 M urea to distinguish between competitive vs. non-competitive inhibitor binding.
The two coupled differential equations describing water efflux and solute influx in response to externally added urea or methylurea were numerically integrated using the forward Euler method (Δt=0.01 s) to reproduce the biphasic changes in cell volume observed experimentally. Computations that were performed using the smaller time step (Δt=0.001 s) gave similar results, confirming the adequacy of the 0.01 s time step. Water flux, Jv (in cm^3/s), across erythrocyte membranes is represented by the following equation: Jv=−Pf·S·vw·[(Ie−Ic(i))+(Ue−Uc(i))]; solute flux, Js (in mol/s), is represented by the following equation: Ps·S·(Ue−Uc(i). Permeability coefficients (Pf and Ps) are expressed in units of cm/s, cell surface area (S) in cm^2, extracellular (e) and cellular (c) concentrations of impermeant (I) and urea/methylurea (U) solute in mol/cm^3, and vw is […]. Initial conditions were Ie=Ic(0)=2.9×10^−4 mol/cm^3, Ue=10^−4 mol/cm^3, and Uc(0)=0. For each time step, a new cell volume (normalized to the initial size; V(i+1)/V(0)) and a new cell permeant concentration (U(i+1)) were calculated from V(i+1)/V(0)=V(i)/V(0)−Δt·Pf·(S/V(0))·vw·[Ie(1−V(i)/V(0))+(Ue−Uc(i))] and Uc(i+1)=Uc(i)/V(0)−Δt·Us·(S/V(0))·vw·(Ue−Uc(i)). Normalized cell volume was assumed to be inversely proportional to scattered light intensity. The product of Pf and the surface area-to-volume ratio (S/V(0)) was determined to be 3.4×10^2 s^−1 and 8.5×10^2 s^−1 for human and mouse erythrocytes, respectively, from water permeability measurements. […]

urea transporter (UT) = conditions: 23° C., RBC urea transport; cited from earlier work
[2] = target: T2, UT-B-facilitated water transport (Mus musculus, UniProt Q8VHL0); assay: Osmotic water permeability by stopped-flow light scattering, RBCs from AQP1-null mice; assay type: cell-based
T2 construct: endogenous in cells; host or cells: mouse red blood cells (AQP1-null and wild-type mice, CD1 background)
T2 sequence (Q8VHL0 1-384): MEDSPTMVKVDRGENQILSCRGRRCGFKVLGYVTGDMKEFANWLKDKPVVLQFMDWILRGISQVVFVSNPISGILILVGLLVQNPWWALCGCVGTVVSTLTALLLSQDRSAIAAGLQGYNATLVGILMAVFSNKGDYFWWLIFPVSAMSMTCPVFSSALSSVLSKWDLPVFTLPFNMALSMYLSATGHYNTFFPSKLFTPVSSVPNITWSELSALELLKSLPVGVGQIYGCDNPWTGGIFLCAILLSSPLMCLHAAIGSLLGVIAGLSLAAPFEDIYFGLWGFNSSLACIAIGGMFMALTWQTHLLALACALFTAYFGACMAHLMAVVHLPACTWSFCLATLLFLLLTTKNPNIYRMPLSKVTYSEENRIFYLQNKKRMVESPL
Procedure: RBC urea and water permeabilities were assayed by stopped-flow light scattering using a Hi-Tech Sf-51 instrument (Wiltshire, UK). For measurement of urea permeability, dilutions of whole blood (human or mouse; see Example 1) in PBS (hematocrit: approximately 0.5%) were incubated with test compounds for 5 min and then subjected to a 250-mM inwardly directed gradient of urea. After an initial osmotic shrinking phase, the kinetics of increasing cell volume caused by urea influx were measured as the time-course of 90° scattered light intensity at 530 nm, with increasing cell volume resulting in reduced scattered light intensity. As a positive control, 0.7 mM phloretin was added to the RBC suspension prior to stopped-flow experiments. Measurements of water permeability were carried out similarly, with sucrose (cell-impermeant) used instead of urea to establish a 250-mM osmotic gradient. As a positive control, HgCl2 (0.3 mM) was added to the RBC suspension prior to stopped-flow measurements. […]
This example describes chemical knock-out of UT-B by UT-B inhibitors in RBCs and the effect on UT-B-facilitated water transport. […] Osmotic water permeability was measured by stopped-flow light scattering in RBCs from wild-type and AQP1-null mice as shown in FIG. 8A. […]

RBCs from wild-type mice = assay: Osmotic water permeability by stopped-flow light scattering, RBCs from wild-type mice; assay type: cell-based, mouse
Procedure: RBC urea and water permeabilities were assayed by stopped-flow light scattering using a Hi-Tech Sf-51 instrument (Wiltshire, UK). For measurement of urea permeability, dilutions of whole blood (human or mouse; see Example 1) in PBS (hematocrit: approximately 0.5%) were incubated with test compounds for 5 min and then subjected to a 250-mM inwardly directed gradient of urea. After an initial osmotic shrinking phase, the kinetics of increasing cell volume caused by urea influx were measured as the time-course of 90° scattered light intensity at 530 nm, with increasing cell volume resulting in reduced scattered light intensity. As a positive control, 0.7 mM phloretin was added to the RBC suspension prior to stopped-flow experiments. Measurements of water permeability were carried out similarly, with sucrose (cell-impermeant) used instead of urea to establish a 250-mM osmotic gradient. As a positive control, HgCl2 (0.3 mM) was added to the RBC suspension prior to stopped-flow measurements. Osmotic water permeability coefficients (Pf) were computed from light scattering data as described (van Hoek et al., J. Biol. Chem. 267:18267-69 (1992)).
This example describes chemical knock-out of UT-B by UT-B inhibitors in RBCs and the effect on UT-B-facilitated water transport. […] Osmotic water permeability was measured by stopped-flow light scattering in RBCs from wild-type and AQP1-null mice as shown in FIG. 8A. […] AQP1-null RBCs had greater than 5-fold reduced Pf compared to wild-type RBCs.

UT-B [3] = target: T1, UT-B; assay: RBC lysis assay, human RBCs loaded with acetamide; assay type: cell-based; conditions: UT-B inhibitory potency

Compound: CC(N)=O [Acetamide, reference compound]
- share of transport in RBCs that is UT-B-dependent (UT-B [1]; stopped-flow light scattering): greater than 95%

Compound: CNC(N)=O [N-methylurea]
- apparent affinity (urea transporter (UT)): approximately 100 mM

Compound: NC(N)=O [urea]
- apparent affinity (urea transporter (UT)): approximately 200 mM

Compound: COc1ccc(O)c(CNc2nc3ccccc3n2C(C)C)c1 [ureainh-420, 2-((1-isopropyl-1H-benzo[d]imidazol-2-ylamino)methyl)-4-methoxyphenol]
- EC50 (UT-B [3]; Table 7, aminobenzimidazoles): 3 µM

Compound: CCn1c(NCc2cccc(OC)c2O)nc2ccccc21 [ureainh-422, 2-((1-ethyl-1H-benzo[d]imidazol-2-ylamino)methyl)-6-methoxyphenol]
- EC50 (UT-B [3]; Table 7, aminobenzimidazoles): 11 µM

Continued, in another order:

- effect on water permeability [2]: further inhibited
- inhibition of urea transport, inhibitor added only to urea-containing solution (sidedness) (UT-B [1]): did not inhibit urea transport
- reversibility of inhibition after washing RBCs (UT-B [1]): fully reversible inhibition
Compound: NC(=O)CSc1oc(-c2ccccc2)nc1S(=O)(=O)c1ccc(Br)cc1 [ureainh-101, 2-(4-(4-bromophenylsulfonyl)-2-phenyloxazol-5-ylthio)acetamide]
- effect on water transport (RBCs from wild-type mice): little effect

- EC50 (UT-B [3]; Table 5, phthalazinamines): 0.2 µM
- effect on water permeability [2]: further inhibited
- inhibition of urea transport, inhibitor added only to urea-containing solution (sidedness) (UT-B [1]): sizable effect
- inhibition at 0.4 µM (UT-B [1]; 0.1 μM ureainh-101, 0.4 μM ureainh-302, read-out: transport inhibition after 10 min pre-incubation): > 95%
- reversibility of inhibition after washing RBCs (UT-B [1]): fully reversible inhibition
Compound: Cc1ccc(Nc2nnc(-c3ccc(C(N)=O)cc3)c3ccccc23)cc1 [ureainh-302, 4-(4-(p-tolylamino)phthalazin-1-yl)benzamide]
- effect on water transport (RBCs from wild-type mice): little effect

- EC50 (UT-B [3]; Table 7, aminobenzimidazoles): 25 µM
Compound: C=CCn1c(NCc2cc(OC)ccc2O)nc2ccccc21 [ureainh-419, 2-((1-allyl-1H-benzo[d]imidazol-2-ylamino)methyl)-4-methoxyphenol]

- EC50 (UT-B [3]; Table 7, aminobenzimidazoles): 3 µM
Compound: CCn1c(NCc2c(O)ccc3ccccc23)nc2ccccc21 [ureainh-421, 1-((1-ethyl-1H-benzo[d]imidazol-2-ylamino)methyl)naphthalen-2-ol]

- EC50 (UT-B [3]; Table 7, aminobenzimidazoles): 5 µM
Compound: CCn1c(NC(C)c2cc(Cl)ccc2O)nc2ccccc21 (stereo not drawn) [ureainh-423, 4-chloro-2-(1-(1-ethyl-1H-benzo[d]imidazol-2-ylamino)ethyl)phenol]
